Broadly, the IC50 is the midpoint of a concentration-inhibition curve.

For this experiment, the target named is T1, recombinant full-length USP7 (Homo sapiens, UniProt Q93009).
T1 construct: A 25 μl reaction volume containing recombinant full-length USP7 (62 pM)
Kind of experiment: USP7-mediated ubiquitin-rhodamine cleavage assay. It counts as biochemical. The settings on record: recombinant full-length USP7 62 pM, ubiquitin-rhodamine 100 nM, 1 hour reaction at room temperature. The method, then: In the case of the USP7 deubiquitylating enzyme, the IC50 of an USP7 inhibiting compound is the concentration of the compound that inhibits 50% of the activity observed in a USP7-mediated ubiquitin-rhodamine cleavage assay.
For the USP7 inhibitors disclosed herein, their potency was measured using the following test method.
A 25 μl reaction volume containing recombinant full-length USP7 (62 pM) in 20 mM HEPES pH 7.3, 150 mM NaCl, 1 mM TCEP, and 125 μg/ml BSA was assembled in wells of 384 well plates. Test compounds were dispensed with a Hewlett Packard D300 digital dispenser (1% final DMSO). Following a 30-minute incubation at room temperature, ubiquitin-rhodamine was added with the D300 to a final concentration of 100 nM and the reaction was allowed to proceed for 1 hour at room temperature protected from light. The reaction was stopped by the addition of 5 μl 1M acetic acid. Rhodamine fluorescence was measured using an Envision plate reader (Perkin Elmer) and IC50 values were determined by non-linear regression using a 4-parameter fit in a Dotmatics (Bishops Stortford, Hertfordshire, England) software package.

Where [1] appears, read: 30-minute pre-incubation, read-out: Potency (USP7 IC50).
The mark [2] stands for this setting: 30-minute incubation with compound, read-out: Potency: USP7 IC50.
Where [3] appears, read: 30-minute incubation, read-out: Potency (USP7 IC50).

Counter-ions that a name gives are not always drawn. Like-named read-outs stand apart in the source and are kept apart here. Bounds are passed on as bounds.

T1 sequence (Q93009 whole entry): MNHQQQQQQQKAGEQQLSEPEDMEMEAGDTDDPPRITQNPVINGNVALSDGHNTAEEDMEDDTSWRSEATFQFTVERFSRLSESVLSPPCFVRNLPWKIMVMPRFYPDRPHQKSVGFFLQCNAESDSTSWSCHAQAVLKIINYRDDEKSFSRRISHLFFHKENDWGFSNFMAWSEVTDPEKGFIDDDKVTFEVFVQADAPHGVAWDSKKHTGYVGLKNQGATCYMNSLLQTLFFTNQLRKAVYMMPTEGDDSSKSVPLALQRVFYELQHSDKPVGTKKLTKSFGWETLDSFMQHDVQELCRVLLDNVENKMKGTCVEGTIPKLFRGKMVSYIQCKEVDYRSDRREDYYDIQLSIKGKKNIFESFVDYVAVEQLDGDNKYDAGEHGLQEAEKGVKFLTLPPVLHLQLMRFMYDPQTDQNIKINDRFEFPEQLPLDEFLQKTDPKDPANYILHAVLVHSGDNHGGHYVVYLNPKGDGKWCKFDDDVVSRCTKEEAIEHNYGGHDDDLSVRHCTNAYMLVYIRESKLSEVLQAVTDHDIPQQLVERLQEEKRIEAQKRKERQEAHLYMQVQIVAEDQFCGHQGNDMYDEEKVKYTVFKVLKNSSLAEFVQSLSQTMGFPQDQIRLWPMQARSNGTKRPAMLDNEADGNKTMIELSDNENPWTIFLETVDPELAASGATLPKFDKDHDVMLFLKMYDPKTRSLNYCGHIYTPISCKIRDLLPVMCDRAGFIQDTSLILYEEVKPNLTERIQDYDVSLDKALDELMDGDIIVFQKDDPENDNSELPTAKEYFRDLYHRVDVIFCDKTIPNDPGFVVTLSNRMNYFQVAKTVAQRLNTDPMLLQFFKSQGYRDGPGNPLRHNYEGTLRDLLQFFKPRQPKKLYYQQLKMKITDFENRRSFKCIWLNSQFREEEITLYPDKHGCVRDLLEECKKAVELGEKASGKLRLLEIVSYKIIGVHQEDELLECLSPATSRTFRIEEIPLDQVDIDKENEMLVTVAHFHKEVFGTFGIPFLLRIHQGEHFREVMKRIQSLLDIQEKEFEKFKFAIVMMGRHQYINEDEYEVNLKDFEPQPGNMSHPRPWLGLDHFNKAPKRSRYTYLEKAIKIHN

For the compound `Cc1cc(Cl)cc(-c2ncnc3cc(Cn4c(=O)ccn(CC(F)(F)F)c4=O)sc23)c1O[C@H]1CC[C@H](N)C1` [Example 543, 3-[[4-[2-[(1S,3S)-3-aminocyclopentoxy]-5-chloro-3-methyl-phenyl]thieno[3,2-d]pyrimidin-6-yl]methyl]-1-(2,2,2-trifluoroethyl)pyrimidine-2,4-dione; 2,2,2-trifluoroacetic acid], the half-inhibitory concentration (IC50) under setting [1] was less than 1000 nM.

As for `Cc1cc(Cl)cc(-c2ncnc3cc(CN4C(=O)C5CCCCC5C4=O)sc23)c1O[C@@H]1CNC[C@@H]1F` (stereo partly drawn) [Example 159, 2-((4-(5-Chloro-2-(((3R,4S)-4-fluoropyrrolidin-3-yl)oxy)-3-methylphenyl)thieno[3,2-d]pyrimidin-6-yl)methyl)hexahydro-1H-isoindole-1,3(2H)-dione], the IC50 under setting [2] lay in the range of 1000 to 10000 nM.

Consider `Cc1cc(Cl)cc(-c2ncnc3cc(CN4C(=O)CCCC4=O)sc23)c1O[C@@H]1CNC[C@@H]1F` [Example 134, 1-((4-(5-Chloro-2-(((3R,4S)-4-fluoropyrrolidin-3-yl)oxy)-3-methylphenyl)thieno[3,2-d]pyrimidin-6-yl)methyl)piperidine-2,6-dione], for which the half-maximal inhibitory concentration (IC50) under setting [2] was less than 1000 nM.

As to `CCN1CC[C@H](Oc2c(C)cc(Cl)cc2-c2ccnc3cc(Cn4c(=O)ccn(C)c4=O)sc23)[C@@H](F)C1` [Example 482, 3-[[7-[5-chloro-2-[[(3S,4S)-1-ethyl-3-fluoro-4-piperidyl]oxy]-3-methyl-phenyl]thieno[3,2-b]pyridin-2-yl]methyl]-1-methyl-pyrimidine-2,4-dione; 2,2,2-trifluoroacetic acid], the IC50 under setting [1] was less than 1000 nM.

`Cc1cc(Cl)cc(-c2ccnc3cc(CO)sc23)c1OC1COC2(CNC2)C1` (stereo not drawn) [Example 40, (7-(2-((5-Oxa-2-azaspiro[3.4]octan-7-yl)oxy)-5-chloro-3-methylphenyl)thieno[3,2-b]pyridin-2-yl)methanol]: under setting [2], the IC50 was in the range of 10000 to 30000 nM.

For the compound `CCC(O)c1cc2nccc(-c3cc(Cl)cc(C)c3OC3CCCNCC3)c2s1` (stereo not drawn) [Example 267, 1-(7-(2-(Azepan-4-yloxy)-5-chloro-3-methylphenyl)thieno[3,2-b]pyridin-2-yl)propan-1-ol], the IC50 under setting [2] fell in the range of 1000 to 10000 nM.

Regarding `Cc1cc(Cl)cc(-c2ccnc3cc(Cn4c(=O)ccn(CC(F)(F)F)c4=O)sc23)c1OC(C)C` [Example 702, 3-[[7-(5-chloro-2-isopropoxy-3-methyl-phenyl)thieno[3,2-b]pyridin-2-yl]methyl]-1-(2,2,2-trifluoroethyl)pyrimidine-2,4-dione], under setting [3], the half-maximal inhibitory concentration (IC50) was in the range of 1000 to 10000 nM.

Take `Cc1cc(Cl)cc(-c2ccnc3cc(CN4C(=O)C5C(C4=O)C5(C)C)sc23)c1O[C@H]1CCNC[C@H]1F` (stereo partly drawn) [Example 392, 3-[[7-[5-chloro-2-[[(3R,4S)-3-fluoro-4-piperidyl]oxy]-3-methyl-phenyl]thieno[3,2-b]pyridin-2-yl]methyl]-6,6-dimethyl-3-azabicyclo[3.1.0]hexane-2,4-dione; 2,2,2-trifluoroacetic acid]: the IC50 under setting [2] is less than 1000 nM.

For the compound “3-((7-(5-Chloro-3-methyl-2-(((1R,3R)-3-morpholinocyclopentyl)oxy)phenyl)thieno[3,2-b]pyridin-2-yl)methyl)-1-(2,2,2-trifluoroethyl)pyrimidine-2,4(1H,3H)-dione [Example 246]”, under setting [2], the IC50 was less than 1000 nM.

As for `Cc1cc(Cl)cc(-c2ncnc3cc(CN4C(=O)C5CC5C4=O)sc23)c1O[C@@H]1CN(C)C[C@@H]1F` (stereo partly drawn) [Example 353, 3-[[4-[5-chloro-2-[(3R,4S)-4-fluoro-1-methyl-pyrrolidin-3-yl]oxy-3-methyl-phenyl]thieno[3,2-d]pyrimidin-6-yl]methyl]-3-azabicyclo[3.1.0]hexane-2,4-dione dihydrochloride], under setting [2], the IC50 was less than 1000 nM.

For the compound `Cc1cc(Cl)cc(-c2ccnc3cc(Cn4c(=O)ccn(CC(F)(F)F)c4=O)sc23)c1O[C@@H]1CCN(CC(=O)O)C[C@@H]1C` [Example 691, 2-[(3S,4R)-4-[4-chloro-2-[2-[[2,6-dioxo-3-(2,2,2-trifluoroethyl)pyrimidin-1-yl]methyl]thieno[3,2-b]pyridin-7-yl]-6-methyl-phenoxy]-3-methyl-1-piperidyl]acetic acid], the concentration for half-maximal inhibition (IC50) under setting [3] is less than 1000 nM.

Take `Cc1cc(Cl)cc(-c2ccnc3cc(CN4C(=O)CCC4=O)sc23)c1O[C@@H]1CNC[C@H]1F` [Example 104, 1-((7-(5-Chloro-2-(((3R,4R)-4-fluoropyrrolidin-3-yl)oxy)-3-methylphenyl)thieno[3,2-b]pyridin-2-yl)methyl)pyrrolidine-2,5-dione]: under setting [2], the IC50 is less than 1000 nM.

Regarding `Cc1cc(Cl)cc(-c2ccnc3cc(Cn4c(=O)ccn(C)c4=O)sc23)c1O[C@@H]1CN[C@@H](C(=O)O)C1` [Example 599, (2R,4S)-4-[4-chloro-2-methyl-6-[2-[(3-methyl-2,6-dioxo-pyrimidin-1-yl)methyl]thieno[3,2-b]pyridin-7-yl]phenoxy]pyrrolidine-2-carboxylic acid], the IC50 under setting [1] is less than 1000 nM.

Consider `Cc1cc(Cl)cc(-c2ncnc3cc(Cn4c(=O)ccn(C(C)C)c4=O)sc23)c1O[C@@H]1CCNC[C@@H]1C` [Example 508, 3-[[4-[5-chloro-3-methyl-2-[[(3S,4R)-3-methyl-4-piperidyl]oxy]phenyl]thieno[3,2-d]pyrimidin-6-yl]methyl]-1-isopropyl-pyrimidine-2,4-dione], for which the IC50 under setting [1] was less than 1000 nM.

Turning to `Cc1cc(Cl)cc(-c2ccnc3cc(Cn4c(=O)ccn(C)c4=O)sc23)c1O[C@@H]1CNC[C@@H]1C(F)(F)F` [Example 441, 3-[[7-[5-chloro-3-methyl-2-[(3S,4S)-4-(trilfuoromethyl)pyrrolidin-3-yl]oxy-phenyl]thieno[3,2-b]pyridin-2-yl]methyl]-1-methyl-pyrimidine-2,4-dione], the IC50 under setting [1] was less than 1000 nM.

As for `CCN1C[C@H]2C[C@@H]1[C@H](Oc1c(C)cc(Cl)cc1-c1ccnc3cc(CN4C(=O)C5C(C4=O)C5(C)C)sc13)C2` (stereo partly drawn) [Example 332, 3-[[7-[5-chloro-2-[[(1S,4R,5R)-3-ethyl-3-azabicyclo[2.2.1]heptan-5-yl]oxy]-3-methyl-phenyl]thieno[3,2-b]pyridin-2-yl]methyl]-6,6-dimethyl-3-azabicyclo[3.1.0]hexane-2,4-dione], the concentration for half-maximal inhibition (IC50) under setting [2] was less than 1000 nM.

As for `Cc1cc(Cl)cc(-c2ccnc3cc(Cn4c(=O)ccn(CC(F)(F)F)c4=O)sc23)c1OCCN1CCCCC1` [Example 666, 3-[[7-[5-chloro-3-methyl-2-[2-(1-piperidyl)ethoxy]phenyl]thieno[3,2-b]pyridin-2-yl]methyl]-1-(2,2,2-trifluoroethyl)pyrimidine-2,4-dione], under setting [1], the IC50 was less than 1000 nM.

As for `Cc1cc(Cl)cc(-c2ccnc3c(F)c(CO)sc23)c1O[C@@H]1CNC[C@@H]1F` [Example 156, (7-(5-Chloro-2-(((3R,4S)-4-fluoropyrrolidin-3-yl)oxy)-3-methylphenyl)-3-fluorothieno[3,2-b]pyridin-2-yl)methanol], the IC50 under setting [2] was in the range of 1000 to 10000 nM.

For `CCC1(C)CC(=O)N(Cc2cc3ncnc(-c4cc(Cl)cc(C)c4O[C@@H]4CNC[C@@H]4F)c3s2)C1=O` (stereo partly drawn) [Example 381, 1-[[4-[5-chloro-2-[(3R,4S)-4-fluoropyrrolidin-3-yl]oxy-3-methyl-phenyl]thieno[3,2-d]pyrimidin-6-yl]methyl]-3-ethyl-3-methyl-pyrrolidine-2,5-dione; 2,2,2-trifluoroacetic acid], under setting [2], the IC50 is less than 1000 nM.

As for `Cc1cc(Cl)cc(-c2ccnc3cc(Cn4c(=O)ccn(CC(F)(F)F)c4=O)sc23)c1O[C@@H]1CCCN[C@H]1C` [Example 622, 3-[[7-[5-chloro-3-methyl-2-[[(2S,3R)-2-methyl-3-piperidyl]oxy]phenyl]thieno[3,2-b]pyridin-2-yl]methyl]-1-(2,2,2-trifluoroethyl)pyrimidine-2,4-dione; 2,2,2-trifluoroacetic acid], the IC50 under setting [1] was less than 1000 nM.

As for `Cc1cc(Cl)cc(-c2ccnc3cc(Cn4c(=O)ccn(C)c4=O)sc23)c1OC1CCNC(C)(C)C1` (stereo not drawn) [Example 572, 3-[[7-[5-chloro-2-[(2,2-dimethyl-4-piperidyl)oxy]-3-methyl-phenyl]thieno[3,2-b]pyridin-2-yl]methyl]-1-methyl-pyrimidine-2,4-dione; 2,2,2-trifluoroacetic acid], under setting [1], the half-maximal inhibitory concentration (IC50) is less than 1000 nM.

Turning to `Cc1cc(Cl)cc(-c2ccnc3ccsc23)c1OC1CC2CNC1C2` (stereo not drawn) [Example 171, 7-(2-((2-Azabicyclo[2.2.1]heptan-6-yl)oxy)-5-chloro-3-methylphenyl)thieno[3,2-b]pyridine], the IC50 under setting [2] was in the range of 10000 to 30000 nM.

As for `Cc1cc(Cl)cc(-c2ccnc3cc(Cn4c(=O)ccn(CC(F)(F)F)c4=O)sc23)c1O[C@H]1CNCC[C@H]1C` [Example 280, 3-((7-(5-Chloro-3-methyl-2-(((3R,4R)-4-methylpiperidin-3-yl)oxy)phenyl)thieno[3,2-b]pyridin-2-yl)methyl)-1-(2,2,2-trifluoroethyl)pyrimidine-2,4(1H,3H)-dione], the IC50 under setting [2] was less than 1000 nM.

`OCc1cc2nccc(-c3cc(Cl)ccc3OCC3CNC3)c2s1` [Example 29, (7-(2-(Azetidin-3-ylmethoxy)-5-chlorophenyl)thieno[3,2-b]pyridin-2-yl)methanol]: the IC50 under setting [2] was 1000 to 10000 nM.
